According to ChEMBL document CHEMBL4000214, “Lycopene pretreatment improves hepatotoxicity induced by acetaminophen in C57BL/6 mice” (2017):
The source made the active and inactive calls. The calls are words filed in the database; no cut-off is given here.

Experiments:
Mus musculus [1] = experiment: Hepatoprotective activity against APAP overdose-induced liver damage in C57BL/6 mouse assessed as decrease in APAP-induced MMP2 activity in liver at 10 to 100 mg/kg, po pretreated via gavage for 14 consecutive days followed by APAP treatment 1 hr post last dose on day 14 measured 12 hrs post APAP treatment by coomassie brilliant blue staining based gelatin zymography assay; type: functional, organism-based
Mus musculus [2] = experiment: Hepatoprotective activity against APAP overdose-induced oxidative damage in C57BL/6 mouse assessed as decrease in GSSG level in liver at 10 mg/kg, po pretreated via gavage for 14 consecutive days followed by APAP treatment 1 hr post last dose on day 14 measured 12 hrs post APAP treatment; type: functional, organism-based
Mus musculus [3] = experiment: Hepatoprotective activity against APAP overdose-induced liver injury in C57BL/6 mouse assessed as total cholesterol level in serum at 10 mg/kg, po pretreated via gavage for 14 consecutive days followed by APAP treatment 1 hr post last dose on day 14 measured 12 hrs post APAP treatment by spectrophotometric method (reference value: 42.2 +/- 3.5 mg/dl); type: functional
Mus musculus [4] = experiment: Hepatoprotective activity against APAP overdose-induced liver injury in C57BL/6 mouse assessed as HDL level in serum at 10 mg/kg, po pretreated via gavage for 14 consecutive days followed by APAP treatment 1 hr post last dose on day 14 measured 12 hrs post APAP treatment by spectrophotometric method (reference value: 10.8 +/- 0.6 mg/dl); type: functional
Mus musculus [5] = experiment: Hepatoprotective activity against APAP overdose-induced liver injury in C57BL/6 mouse assessed as atherogenic fraction in serum at 10 mg/kg, po pretreated via gavage for 14 consecutive days followed by APAP treatment 1 hr post last dose on day 14 measured 12 hrs post APAP treatment by spectrophotometric method (reference value: 28.8 +/- 2.6 mg/dl); type: functional
Mus musculus [6] = experiment: Hepatoprotective activity against APAP overdose-induced oxidative damage in C57BL/6 mouse assessed as inhibition of APAP-induced decrease in total GSH level in liver at 10 to 100 mg/kg, po pretreated via gavage for 14 consecutive days followed by APAP treatment 1 hr post last dose on day 14 measured 12 hrs post APAP treatment by DTNB reagent based assay; type: functional, organism-based
Mus musculus [7] = experiment: Hepatoprotective activity against APAP overdose-induced oxidative damage in po dosed C57BL/6 mouse assessed as decrease in carbonylated protein content in liver pretreated via gavage for 14 consecutive days followed by APAP treatment 1 hr post last dose on day 14 measured 12 hrs post APAP treatment by spectrophotometric method; type: functional, organism-based
Mus musculus [8] = experiment: Hepatoprotective activity against APAP overdose-induced liver injury in C57BL/6 mouse assessed as serum AST level at 10 mg/kg, po pretreated via gavage for 14 consecutive days followed by APAP treatment 1 hr post last dose on day 14 measured 12 hrs post APAP treatment by spectrophotometric method (reference value: 143.8 +/- 2.5 IU); type: functional
Mus musculus [9] = experiment: Hepatoprotective activity against APAP overdose-induced liver damage in C57BL/6 mouse assessed as serum IL-1beta mRNA level at 10 mg/kg, po pretreated via gavage for 14 consecutive days followed by APAP treatment 1 hr post last dose on day 14 measured 12 hrs post APAP treatment by RT-PCR method (reference value: 1.67 +/- 0.4); type: functional
Mus musculus [10] = experiment: Hepatoprotective activity against APAP overdose-induced liver damage in C57BL/6 mouse assessed as decrease in liver necrotic area at 10 mg/kg, po pretreated via gavage for 14 consecutive days followed by APAP treatment 1 hr post last dose on day 14 measured 12 hrs post APAP treatment by hematoxylin and eosin staining based assay; type: functional, organism-based
Mus musculus [11] = experiment: Hepatoprotective activity against APAP overdose-induced oxidative damage in C57BL/6 mouse assessed as increase in GSH level in liver at 10 to 100 mg/kg, po pretreated via gavage for 14 consecutive days followed by APAP treatment 1 hr post last dose on day 14 measured 12 hrs post APAP treatment by DTNB reagent based assay; type: functional, organism-based
Mus musculus [12] = experiment: Hepatoprotective activity against APAP overdose-induced liver injury in C57BL/6 mouse assessed as atherogenic fraction in serum at 100 mg/kg, po pretreated via gavage for 14 consecutive days followed by APAP treatment 1 hr post last dose on day 14 measured 12 hrs post APAP treatment by spectrophotometric method (reference value: 28.8 +/- 2.6 mg/dl); type: functional
Mus musculus [13] = experiment: Hepatoprotective activity against APAP overdose-induced liver damage in C57BL/6 mouse assessed as serum IL-6 mRNA level at 10 mg/kg, po pretreated via gavage for 14 consecutive days followed by APAP treatment 1 hr post last dose on day 14 measured 12 hrs post APAP treatment by RT-PCR method (reference value: 0.32 +/- 0.2); type: functional
Mus musculus [14] = experiment: Hepatoprotective activity against APAP overdose-induced liver damage in C57BL/6 mouse assessed as serum IL-6 mRNA level at 100 mg/kg, po pretreated via gavage for 14 consecutive days followed by APAP treatment 1 hr post last dose on day 14 measured 12 hrs post APAP treatment by RT-PCR method (reference value: 0.32 +/- 0.2); type: functional
Mus musculus [15] = experiment: Hepatoprotective activity against APAP overdose-induced liver damage in C57BL/6 mouse assessed as decrease in liver necrotic area at 100 mg/kg, po pretreated via gavage for 14 consecutive days followed by APAP treatment 1 hr post last dose on day 14 measured 12 hrs post APAP treatment by hematoxylin and eosin staining based assay; type: functional, organism-based
Mus musculus [16] = experiment: Hepatoprotective activity against APAP overdose-induced oxidative damage in C57BL/6 mouse assessed as decrease in lipid peroxidation in liver at 10 to 100 mg/kg, po pretreated via gavage for 14 consecutive days followed by APAP treatment 1 hr post last dose on day 14 measured 12 hrs post APAP treatment by TBARS assay; type: functional, organism-based
Mus musculus [17] = experiment: Hepatoprotective activity against APAP overdose-induced liver injury in C57BL/6 mouse assessed as serum ALT level at 100 mg/kg, po pretreated via gavage for 14 consecutive days followed by APAP treatment 1 hr post last dose on day 14 measured 12 hrs post APAP treatment by spectrophotometric method (reference value: 166 +/- 1.7 IU); type: functional
Mus musculus [18] = experiment: Hepatoprotective activity against APAP overdose-induced liver damage in C57BL/6 mouse assessed as serum IL-10 mRNA level at 10 mg/kg, po pretreated via gavage for 14 consecutive days followed by APAP treatment 1 hr post last dose on day 14 measured 12 hrs post APAP treatment by RT-PCR method (reference value: 0.45 +/- 0.2); type: functional
Mus musculus [19] = experiment: Hepatoprotective activity against APAP overdose-induced oxidative damage in C57BL/6 mouse assessed as restoration of APAP-induced loss in SOD activity in liver by measuring SOD ability to dismutase superoxide anion at 10 to 100 mg/kg, po pretreated via gavage for 14 consecutive days followed by APAP treatment 1 hr post last dose on day 14 measured 12 hrs post APAP treatment by spectrophotometric method; type: functional, organism-based
Mus musculus [20] = experiment: Hepatoprotective activity against APAP overdose-induced oxidative damage in C57BL/6 mouse assessed as decrease in GSSG level in liver at 100 mg/kg, po pretreated via gavage for 14 consecutive days followed by APAP treatment 1 hr post last dose on day 14 measured 12 hrs post APAP treatment; type: functional, organism-based
Mus musculus [21] = experiment: Hepatoprotective activity against APAP overdose-induced liver injury in C57BL/6 mouse assessed as serum AST level at 100 mg/kg, po pretreated via gavage for 14 consecutive days followed by APAP treatment 1 hr post last dose on day 14 measured 12 hrs post APAP treatment by spectrophotometric method (reference value: 143.8 +/- 2.5 IU); type: functional
Mus musculus [22] = experiment: Hepatoprotective activity against APAP overdose-induced oxidative damage in C57BL/6 mouse assessed as restoration of APAP-induced loss in catalase activity in liver by measuring decrease in hydrogen peroxide level at 10 to 100 mg/kg, po pretreated via gavage for 14 consecutive days followed by APAP treatment 1 hr post last dose on day 14 measured 12 hrs post APAP treatment by spectrophotometric method; type: functional, organism-based
Mus musculus [23] = experiment: Hepatoprotective activity against APAP overdose-induced liver injury in C57BL/6 mouse assessed as serum ALT level at 10 mg/kg, po pretreated via gavage for 14 consecutive days followed by APAP treatment 1 hr post last dose on day 14 measured 12 hrs post APAP treatment by spectrophotometric method (reference value: 166 +/- 1.7 IU); type: functional
Mus musculus [24] = experiment: Hepatoprotective activity against APAP overdose-induced liver damage in C57BL/6 mouse assessed as serum IL-10 mRNA level at 100 mg/kg, po pretreated via gavage for 14 consecutive days followed by APAP treatment 1 hr post last dose on day 14 measured 12 hrs post APAP treatment by RT-PCR method (reference value: 0.45 +/- 0.2); type: functional
Mus musculus [25] = experiment: Hepatoprotective activity against APAP overdose-induced liver injury in C57BL/6 mouse assessed as total cholesterol level in serum at 100 mg/kg, po pretreated via gavage for 14 consecutive days followed by APAP treatment 1 hr post last dose on day 14 measured 12 hrs post APAP treatment by spectrophotometric method (reference value: 42.2 +/- 3.5 mg/dl); type: functional
Mus musculus [26] = experiment: Hepatoprotective activity against APAP overdose-induced liver injury in C57BL/6 mouse assessed as HDL level in serum at 100 mg/kg, po pretreated via gavage for 14 consecutive days followed by APAP treatment 1 hr post last dose on day 14 measured 12 hrs post APAP treatment by spectrophotometric method (reference value: 10.8 +/- 0.6 mg/dl); type: functional
Mus musculus [27] = experiment: Hepatoprotective activity against APAP overdose-induced liver damage in C57BL/6 mouse assessed as serum IL-1beta mRNA level at 100 mg/kg, po pretreated via gavage for 14 consecutive days followed by APAP treatment 1 hr post last dose on day 14 measured 12 hrs post APAP treatment by RT-PCR method (reference value: 1.67 +/- 0.4); type: functional

In the case of `CC(C)=CCC/C(C)=C/C=C/C(C)=C/C=C/C(C)=C/C=C/C=C(C)/C=C/C=C(C)/C=C/C=C(\C)CCC=C(C)C` [LYCOPENE], the Activity (Mus musculus [1]) is reported as “Active”, the Activity (Mus musculus [2]) is reported as “inactive” and the Activity (Mus musculus [3]) is reported as 41 mg/dL. The Activity (Mus musculus [4]) was 9 mg/dL, the Activity (Mus musculus [5]) was 30 mg/dL and the Activity (Mus musculus [6]) was “Active”. The Activity (Mus musculus [7]) was “Dose-dependent effect”, the Activity (Mus musculus [8]) was 139.6 IU and the Activity (Mus musculus [9]) was 0.68. For the same molecule, the Activity (Mus musculus [10]) was “inactive”, the Activity (Mus musculus [11]) was “Active” and the Activity (Mus musculus [12]) was 41.1 mg/dL. The Activity (Mus musculus [13]) was 0.37, the Activity (Mus musculus [14]) was 0.4 and the Activity (Mus musculus [15]) was “Active”. For the same molecule, the Activity (Mus musculus [16]) was “Active”, the Activity (Mus musculus [17]) was 164.1 IU and the Activity (Mus musculus [18]) was 0.57. The Activity (Mus musculus [19]) was “inactive”, the Activity (Mus musculus [20]) was “Active” and the Activity (Mus musculus [21]) was 139.8 IU. For the same molecule, the Activity (Mus musculus [22]) was “Active”, the Activity (Mus musculus [23]) was 161.7 IU and the Activity (Mus musculus [24]) was 0.3. It also gave an Activity (Mus musculus [25]) of 58.2 mg/dL, an Activity (Mus musculus [26]) of 17 mg/dL and an Activity (Mus musculus [27]) of 0.58.
